Series [1] deals with T1, Histone deacetylase 1 (Homo sapiens, UniProt Q13547). Description: Inhibition of full length recombinant C-terminal FLAG-His-tagged human HDAC1 expressed in baculovirus infected Sf21 insect cells using RHK-K(Ac)-AMC peptide as substrate measured after 60 mins by fluorimetry analysis.
A short description of series [2]: Stability in human pooled liver microsomes assessed as parent compound remaining measured at 60 mins in presence of NADPH by LC-MS/MS analysis. Type of series: ADME, Microsome. The settings on record: pooled liver microsomes, read-out: Stabilty. (Microsomes from liver hold many membrane-bound enzymes, among them those of drug oxidation.)
Series [3] is described as follows: Stability in CD1 mouse pooled liver microsomes assessed as parent compound remaining measured at 60 mins in presence of NADPH by LC-MS/MS analysis. The series is classed as ADME, Microsome. To be noted: for remaining at 1 h: CD1, mouse, pooled liver microsomes, read-out: Stabilty.
Series [4] in a line: Half life in human pooled liver microsomes assessed as parent compound remaining measured up to 60 mins in presence of NADPH by LC-MS/MS analysis. Type of series: ADME, Microsome. To be noted: pooled liver microsomes.
Series [5] is filed under the species Homo sapiens. Description: Selectivity index, ratio of IC50 for full length recombinant C-terminal FLAG-His-tagged human HDAC1 expressed in baculovirus infected Sf21 insect cells using RHK-K(Ac)-AMC peptide as substrate measured after 60 mins by fluorimetry analysis to IC50 for full length recombinant N-terminal GST-tagged ….
Description: Selectivity index, ratio of IC50 for full length recombinant C-terminal FLAG-His-tagged human HDAC1 expressed in baculovirus infected Sf21 insect cells using RHK-K(Ac)-AMC peptide as substrate measured after 60 mins by fluorimetry analysis to IC50 for full length recombinant N-terminal GST-tagged human HDAC6 expressed in baculovirus infected Sf9 insect cells using RHK-K(Ac)-AMC peptide as substrate measured after 90 mins by fluorimetry analysis
Series [6] concerns the target T2, Protein deacetylase HDAC6 (Homo sapiens, UniProt Q9UBN7).
T2 sequence (Q9UBN7 whole entry): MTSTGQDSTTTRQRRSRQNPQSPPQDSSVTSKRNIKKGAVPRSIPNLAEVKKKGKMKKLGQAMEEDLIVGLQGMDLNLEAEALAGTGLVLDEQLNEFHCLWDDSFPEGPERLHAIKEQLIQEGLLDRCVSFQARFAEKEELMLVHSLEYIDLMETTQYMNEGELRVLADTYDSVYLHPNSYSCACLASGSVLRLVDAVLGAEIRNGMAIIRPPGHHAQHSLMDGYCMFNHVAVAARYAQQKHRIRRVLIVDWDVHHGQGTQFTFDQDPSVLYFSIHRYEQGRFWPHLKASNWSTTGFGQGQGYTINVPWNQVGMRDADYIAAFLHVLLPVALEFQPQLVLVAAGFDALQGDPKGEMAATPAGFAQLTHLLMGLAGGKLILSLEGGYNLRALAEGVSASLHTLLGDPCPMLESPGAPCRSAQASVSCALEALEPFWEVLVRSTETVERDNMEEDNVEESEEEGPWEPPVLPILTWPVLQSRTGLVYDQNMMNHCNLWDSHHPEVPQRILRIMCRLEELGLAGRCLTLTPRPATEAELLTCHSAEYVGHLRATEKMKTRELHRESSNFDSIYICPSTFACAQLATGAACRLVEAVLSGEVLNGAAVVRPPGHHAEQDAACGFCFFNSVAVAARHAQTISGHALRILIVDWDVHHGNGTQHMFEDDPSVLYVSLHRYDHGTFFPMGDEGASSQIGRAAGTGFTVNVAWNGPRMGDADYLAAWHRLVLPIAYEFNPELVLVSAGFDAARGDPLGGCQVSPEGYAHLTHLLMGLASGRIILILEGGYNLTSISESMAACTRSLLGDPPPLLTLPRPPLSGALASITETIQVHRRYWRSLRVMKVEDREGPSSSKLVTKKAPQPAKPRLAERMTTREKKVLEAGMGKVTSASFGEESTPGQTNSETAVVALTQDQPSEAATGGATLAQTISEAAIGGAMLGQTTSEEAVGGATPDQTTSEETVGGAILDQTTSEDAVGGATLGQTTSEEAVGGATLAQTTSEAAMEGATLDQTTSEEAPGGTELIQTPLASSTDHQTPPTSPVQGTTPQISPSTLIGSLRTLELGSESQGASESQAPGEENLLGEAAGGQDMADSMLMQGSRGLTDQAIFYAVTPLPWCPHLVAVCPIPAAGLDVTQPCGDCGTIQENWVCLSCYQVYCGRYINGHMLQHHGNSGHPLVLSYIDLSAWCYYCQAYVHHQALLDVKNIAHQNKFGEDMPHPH
The series is described as follows: biochemical.
Description: Inhibition of full length recombinant N-terminal GST-tagged human HDAC6 expressed in baculovirus infected Sf9 insect cells using RHK-K(Ac)-AMC peptide as substrate measured after 90 mins by fluorimetry analysis

A short description of series [7]: Half life in CD1 mouse pooled liver microsomes assessed as parent compound remaining measured up to 60 mins in presence of NADPH by LC-MS/MS analysis. The series is classed as ADME, Microsome. The settings on record: for half-life: CD1, mouse, pooled liver microsomes.
The target in series [8] is T3, Protein deacetylase HDAC6 (Mus musculus) (UniProt Q9Z2V5).
T3 sequence (whole entry): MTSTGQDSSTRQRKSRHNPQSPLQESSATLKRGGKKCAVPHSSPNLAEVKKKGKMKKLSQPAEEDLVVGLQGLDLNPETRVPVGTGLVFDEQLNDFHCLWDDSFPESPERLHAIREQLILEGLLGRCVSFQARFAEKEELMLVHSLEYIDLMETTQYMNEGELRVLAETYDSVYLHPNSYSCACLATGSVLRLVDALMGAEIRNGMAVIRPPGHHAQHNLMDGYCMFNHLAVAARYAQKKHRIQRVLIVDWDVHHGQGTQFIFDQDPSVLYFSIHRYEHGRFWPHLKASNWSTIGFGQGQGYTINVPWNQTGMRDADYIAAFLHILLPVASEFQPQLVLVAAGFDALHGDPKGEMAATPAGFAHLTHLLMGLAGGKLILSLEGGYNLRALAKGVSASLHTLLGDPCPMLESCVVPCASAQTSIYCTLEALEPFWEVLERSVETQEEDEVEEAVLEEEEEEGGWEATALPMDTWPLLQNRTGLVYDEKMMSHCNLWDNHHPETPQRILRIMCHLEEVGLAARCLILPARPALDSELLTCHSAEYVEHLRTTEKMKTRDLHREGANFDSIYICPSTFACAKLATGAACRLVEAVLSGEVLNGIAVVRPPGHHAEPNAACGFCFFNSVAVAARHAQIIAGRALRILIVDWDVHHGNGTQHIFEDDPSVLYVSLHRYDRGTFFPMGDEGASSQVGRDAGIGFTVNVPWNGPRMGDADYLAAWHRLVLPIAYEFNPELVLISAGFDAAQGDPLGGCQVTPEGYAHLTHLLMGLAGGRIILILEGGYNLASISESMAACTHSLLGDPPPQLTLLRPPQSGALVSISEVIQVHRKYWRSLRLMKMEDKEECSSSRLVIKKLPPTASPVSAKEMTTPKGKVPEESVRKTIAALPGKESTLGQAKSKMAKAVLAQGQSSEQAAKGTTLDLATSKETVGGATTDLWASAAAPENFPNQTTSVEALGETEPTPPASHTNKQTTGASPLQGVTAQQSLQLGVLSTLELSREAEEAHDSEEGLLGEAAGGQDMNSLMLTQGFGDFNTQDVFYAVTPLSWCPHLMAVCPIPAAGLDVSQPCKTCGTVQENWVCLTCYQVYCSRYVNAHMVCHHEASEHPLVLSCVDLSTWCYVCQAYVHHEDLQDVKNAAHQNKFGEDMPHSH
The series is described as follows: Inhibition of HDAC6 in mouse Neuro2a cells assessed as fold increase in ratio of acetylated alpha-tubulin to alpha tubulin at 1 uM incubated for overnight by Western blot analysis. Type of series: cell-based. The settings on record: time 12.0 hrs. (In western blotting, separated proteins are transferred to a membrane and probed.)

Series [9] concerns the target T3, Protein deacetylase HDAC6 (Mus musculus). Description: Inhibition of HDAC6 in mouse Neuro2a cells assessed as fold increase in ratio of acetylated alpha-tubulin to alpha tubulin at 0.01 uM incubated for overnight by Western blot analysis. Type of series: cell-based. To be noted: time 12.0 hrs.
The target of series [10] is T4, Histone deacetylase 8 (Homo sapiens, UniProt Q9BY41).
T4 sequence (Q9BY41 whole entry): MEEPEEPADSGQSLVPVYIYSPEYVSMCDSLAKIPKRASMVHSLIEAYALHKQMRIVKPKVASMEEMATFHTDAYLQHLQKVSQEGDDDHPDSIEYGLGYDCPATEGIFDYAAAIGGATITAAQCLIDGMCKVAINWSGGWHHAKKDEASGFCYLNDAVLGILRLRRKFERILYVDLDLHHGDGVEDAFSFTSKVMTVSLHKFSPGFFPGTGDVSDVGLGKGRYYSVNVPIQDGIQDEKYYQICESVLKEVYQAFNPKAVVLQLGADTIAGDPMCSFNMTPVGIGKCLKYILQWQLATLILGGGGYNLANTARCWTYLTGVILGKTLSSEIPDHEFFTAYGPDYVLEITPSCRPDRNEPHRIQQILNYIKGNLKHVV
Description: Inhibition of recombinant human HDAC8 using Boc-Lys(TFA)-AMC as substrate preincubated for 10 mins followed by substrate addition and measured after 30 mins by fluorescence-based assay

Series [11] addresses T2, Protein deacetylase HDAC6.
Description: Inhibition of recombinant human HDAC6 using Ac-GAK(Ac)-AMC as substrate preincubated for 10 mins followed by substrate addition and measured after 30 mins by fluorescence-based assay
The target in series [12] is T1, Histone deacetylase 1.
Description: Inhibition of recombinant human HDAC1 using Ac-GAK(Ac)-AMC as substrate preincubated for 10 mins followed by substrate addition and measured after 30 mins by fluorescence-based assay

The structures appear in SMILES notation.

T1 sequence (Q13547 whole entry): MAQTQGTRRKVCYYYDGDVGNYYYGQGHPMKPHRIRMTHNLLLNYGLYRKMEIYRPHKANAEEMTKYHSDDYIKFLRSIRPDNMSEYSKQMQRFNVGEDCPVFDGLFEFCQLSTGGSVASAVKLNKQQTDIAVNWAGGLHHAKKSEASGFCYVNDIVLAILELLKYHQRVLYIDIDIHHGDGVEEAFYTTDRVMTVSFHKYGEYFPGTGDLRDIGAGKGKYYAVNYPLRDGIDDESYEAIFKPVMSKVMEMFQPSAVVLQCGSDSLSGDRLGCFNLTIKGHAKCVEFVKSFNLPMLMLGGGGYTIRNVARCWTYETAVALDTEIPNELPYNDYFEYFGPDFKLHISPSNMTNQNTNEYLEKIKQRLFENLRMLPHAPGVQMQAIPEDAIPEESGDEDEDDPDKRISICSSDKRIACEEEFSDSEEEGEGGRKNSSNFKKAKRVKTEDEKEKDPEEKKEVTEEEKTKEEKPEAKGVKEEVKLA

For the compound `O=C(NO)c1ccc(CN2CCCc3ccccc32)cc1`, the IC50 was determined as 15 nM in [1] and 11000 nM in series [6]. Further, the results for the remaining at 1 h in [2] and in series [3] were 73% and 34.1%, respectively. Besides, the half-life in [4] was determined as 3.02 h; in [7], 0.673 h. In addition, the Ratio IC50 in [5] worked out at 733.

Consider `O=C(NO)c1ccc(CN2C(=O)CCc3cc(Cl)ccc32)cc1`, for which the remaining at 1 h in [2] came to 92.6%. The fold change (FC) in series [8] amounted to 1.51; in series [9], 0.93. In [3] (mouse, microsomes, 1 h), the Stabilty was 77.7%. In series [4], the half-life is 9.62 h. In addition, the IC50 turned out to be 2080 nM in series [10], 2.9 nM in series [11] and 276 nM in [12]. Moreover, the t1/2 in series [7] (mouse, microsomes, 1 h) is 29.05 h.

As to `O=C(NO)c1ccc(CN2C(=O)CCCc3cc(Cl)ccc32)cc1`, the remaining at 1 h worked out at 95.3% in [2] and 68.1% in [3]. The fold change (FC) worked out at 1.73 in [8] and 2.81 in series [9]. Besides, the half-life in series [4] was 12 h; in series [7], 1.83 h. The IC50 in series [10] came to 1170 nM; in series [11] it was 0.8 nM; in series [12] it was 126 nM.

On to `O=C(NO)c1ccc(CN2CCCCc3cc(Cl)ccc32)cc1`, for which the remaining at 1 h in series [2] was 83.9%; in series [3], 34.7%. Besides, the fold change (FC) turned out to be 0.55 in series [8] and 0.89 in [9]. The half-life stood at 35.5 h in series [4] and 1.01 h in series [7]. In addition, the IC50 in series [10] amounted to 8640 nM; in [11] it was 1 nM; in [12], 1900 nM.

In the case of `O=C(NO)c1ccc(CN2CCCCc3ccccc32)cc1`, the remaining at 1 h is 83.9% in [2] and 34.7% in [3]. Further, the results for the fold change (FC) in series [8] and in series [9] were 0.78 and 0.98, respectively. In addition, the half-life in [4] was found to be 4.03 h; in series [7], 0.66 h. Also, the IC50 in series [10] was 5610 nM; in [11] it was 5 nM; in [12], 1320 nM.

For orientation: IC50 means the concentration at which inhibition is half-maximal. By half-life is commonly meant the time needed for the level to fall by half in the phase considered.

Values taken from ChEMBL document CHEMBL4823254, “Tetrahydroquinoline-Capped Histone Deacetylase 6 Inhibitor SW-101 Ameliorates Pathological Phenotypes in a Charcot-Marie-Tooth Type 2A Mouse Model” (J Med Chem, 2021).
